# Test results from PubChem BioAssay (NCI).
#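 GI50 is the concentration that inhibits growth by half. The concentration for full growth arrest is given as TGI.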
# Key:
# Experiment in all cases: DTP human tumour cell line panel, 384-well format
# [1] = test system: RXF 393 renal
# [2] = test system: RPMI-8226 leukemia
# [3] = test system: SNB-75 CNS
# [4] = test system: 786-0 renal
# [5] = test system: A498 renal
# [6] = test system: CAKI-1 renal
# [7] = test system: EKVX NSCLC
# [8] = test system: BT-549 breast
# [9] = test system: NCI-H23 lung
# [10] = test system: OVCAR-5 ovarian
# [11] = test system: PC-3 prostate
# [12] = test system: UO-31 renal
# [13] = test system: SN12C renal
# [14] = test system: HOP-92 NSCLC
# [15] = test system: TK-10 renal
# [16] = test system: CCRF-CEM leukemia
# [17] = test system: U251 glioblastoma
# [18] = test system: SK-MEL-28 melanoma
# [19] = test system: T-47D breast
# [20] = test system: UACC-62 melanoma
# [21] = test system: SR leukemia
# [22] = test system: NCI-H522 lung
# [23] = test system: MALME-3M melanoma
# [24] = test system: HT29 colon
# [25] = test system: HCT-15 colon
# [26] = test system: M14 melanoma
# [27] = test system: HCC-2998 colon
# [28] = test system: NCI/ADR-RES ovarian
# [29] = test system: SK-MEL-5 melanoma
# [30] = test system: MDA-MB-231 breast
# [31] = test system: OVCAR-4 ovarian
# [32] = test system: NCI-H460 NSCLC
# [33] = test system: COLO 205 colon
# [34] = test system: SF-295 CNS
# [35] = test system: SF-268 CNS
# [36] = test system: ACHN renal
# [37] = test system: MDA-MB-468 breast
# [38] = test system: MOLT-4 leukemia
# [39] = test system: HS 578T breast
# [40] = test system: A549 NSCLC
# [41] = test system: OVCAR-3 ovarian
# [42] = test system: MCF7 breast
# [43] = test system: LOX IMVI melanoma
# [44] = test system: IGROV1 ovarian
# [45] = test system: K-562 leukemia
# [46] = test system: NCI-H322M lung
# [47] = test system: OVCAR-8 ovarian
# [48] = test system: MDA-MB-435 melanoma
# [49] = test system: HOP-62 NSCLC
# [50] = test system: HL-60(TB) leukemia
# [51] = test system: DU-145 prostate
# [52] = test system: SK-OV-3 ovarian
# [53] = test system: UACC-257 melanoma
# [54] = test system: SNB-19 CNS
# [55] = test system: SF-539 CNS
# [56] = test system: SW-620 colon
# [57] = test system: NCI-H226 lung
# [58] = test system: KM12 colon
structure (smiles),measurement,setting,value
O=C(NOCC1CC1)c1ccc(F)c(F)c1Nc1ccc(I)cc1Cl,GI50,[1],2110 nM
same,TGI,[1],11600 nM
same,GI50,[2],277 nM
same,TGI,[2],1780 nM
same,GI50,[3],1880 nM
same,TGI,[3],9450 nM
same,GI50,[4],1860 nM
same,TGI,[4],9930 nM
same,GI50,[5],1690 nM
same,TGI,[5],12200 nM
same,GI50,[6],1030 nM
same,TGI,[6],3070 nM
same,GI50,[7],1720 nM
same,TGI,[7],4290 nM
same,GI50,[8],2730 nM
same,TGI,[8],14800 nM
same,GI50,[9],246 nM
same,TGI,[9],1910 nM
same,GI50,[10],304 nM
same,TGI,[10],2650 nM
same,GI50,[11],3500 nM
same,TGI,[11],11800 nM
same,GI50,[12],2340 nM
same,TGI,[12],> 100000 nM
same,GI50,[13],1040 nM
same,TGI,[13],4430 nM
same,GI50,[14],1060 nM
same,TGI,[14],2410 nM
same,GI50,[15],1910 nM
same,TGI,[15],5840 nM
same,GI50,[16],1800 nM
same,TGI,[16],3370 nM
same,GI50,[17],2110 nM
same,TGI,[17],8040 nM
same,GI50,[18],35.2 nM
same,TGI,[18],208 nM
same,GI50,[19],2350 nM
same,TGI,[19],7060 nM
same,GI50,[20],40 nM
same,TGI,[20],259 nM
same,GI50,[21],1650 nM
same,TGI,[21],3260 nM
same,GI50,[22],1820 nM
same,TGI,[22],4090 nM
same,GI50,[23],17 nM
same,TGI,[23],44.8 nM
same,GI50,[24],279 nM
same,TGI,[24],10300 nM
same,GI50,[25],2290 nM
same,TGI,[25],11500 nM
same,GI50,[26],34.9 nM
same,TGI,[26],176 nM
same,GI50,[27],84.7 nM
same,TGI,[27],540 nM
same,GI50,[28],1740 nM
same,TGI,[28],3690 nM
same,GI50,[29],104 nM
same,TGI,[29],1580 nM
same,GI50,[30],896 nM
same,TGI,[30],2960 nM
same,GI50,[31],1490 nM
same,TGI,[31],5030 nM
same,GI50,[32],1380 nM
same,TGI,[32],11400 nM
same,GI50,[33],56.6 nM
same,TGI,[33],1010 nM
same,GI50,[34],2250 nM
same,TGI,[34],6090 nM
same,GI50,[35],3180 nM
same,TGI,[35],14700 nM
same,GI50,[36],1660 nM
same,TGI,[36],15400 nM
same,GI50,[37],1850 nM
same,TGI,[37],3550 nM
same,GI50,[38],1650 nM
same,TGI,[38],3020 nM
same,GI50,[39],1840 nM
same,TGI,[39],6160 nM
same,GI50,[40],1030 nM
same,TGI,[40],3840 nM
same,GI50,[41],1640 nM
same,TGI,[41],3320 nM
same,GI50,[42],2900 nM
same,TGI,[42],10700 nM
same,GI50,[43],337 nM
same,TGI,[43],1690 nM
same,GI50,[44],1080 nM
same,TGI,[44],2810 nM
same,GI50,[45],1750 nM
same,TGI,[45],10700 nM
same,GI50,[46],1230 nM
same,TGI,[46],6800 nM
same,GI50,[47],1920 nM
same,TGI,[47],4820 nM
same,GI50,[48],110 nM
same,TGI,[48],6030 nM
same,GI50,[49],868 nM
same,TGI,[49],6430 nM
same,GI50,[50],37.5 nM
same,TGI,[50],808 nM
same,GI50,[51],3490 nM
same,TGI,[51],15300 nM
same,GI50,[52],3160 nM
same,TGI,[52],13300 nM
same,GI50,[53],46 nM
same,TGI,[53],234 nM
same,GI50,[54],1340 nM
same,TGI,[54],5800 nM
same,GI50,[55],1620 nM
same,TGI,[55],3610 nM
same,GI50,[56],105 nM
same,TGI,[56],1870 nM
same,GI50,[57],1180 nM
same,TGI,[57],4320 nM
same,GI50,[58],414 nM
same,TGI,[58],3930 nM
CNC(=O)c1cccc(-c2ccc3c(N4CCOC[C@@H]4C)nc(N4CCOC[C@@H]4C)nc3n2)c1,GI50,[1],330 nM
same,GI50,[2],12.8 nM
same,TGI,[2],40.1 nM
same,GI50,[3],121 nM
same,GI50,[4],348 nM
same,GI50,[5],32.9 nM
same,TGI,[5],374 nM
same,GI50,[6],214 nM
same,TGI,[6],5520 nM
same,GI50,[7],161 nM
same,TGI,[7],1870 nM
same,GI50,[8],213 nM
same,TGI,[8],1360 nM
same,GI50,[9],314 nM
same,GI50,[10],139 nM
same,GI50,[11],71.9 nM
same,TGI,[11],8300 nM
same,GI50,[12],505 nM
same,TGI,[12],7860 nM
same,GI50,[13],142 nM
same,TGI,[13],8260 nM
same,GI50,[14],97.2 nM
same,TGI,[14],1660 nM
same,GI50,[15],260 nM
same,TGI,[15],3830 nM
same,GI50,[16],197 nM
same,GI50,[17],637 nM
same,GI50,[18],131 nM
same,TGI,[18],1170 nM
same,GI50,[19],20.4 nM
same,TGI,[19],116 nM
same,GI50,[20],152 nM
same,TGI,[20],727 nM
same,GI50,[21],53.6 nM
same,TGI,[21],239 nM
same,GI50,[22],68.6 nM
same,GI50,[23],19 nM
same,TGI,[23],161 nM
same,GI50,[24],546 nM
same,GI50,[25],187 nM
same,GI50,[26],143 nM
same,GI50,[27],662 nM
same,GI50,[28],534 nM
same,GI50,[29],62 nM
same,TGI,[29],295 nM
same,GI50,[30],207 nM
same,GI50,[31],111 nM
same,TGI,[31],595 nM
same,GI50,[32],37.9 nM
same,GI50,[33],154 nM
same,GI50,[34],112 nM
same,TGI,[34],545 nM
same,GI50,[35],433 nM
same,GI50,[36],162 nM
same,GI50,[37],33.2 nM
same,TGI,[37],277 nM
same,GI50,[38],98.7 nM
same,TGI,[38],1040 nM
same,GI50,[39],105 nM
same,TGI,[39],381 nM
same,GI50,[40],152 nM
same,GI50,[41],257 nM
same,GI50,[42],59.7 nM
same,GI50,[43],298 nM
same,TGI,[43],1780 nM
same,GI50,[44],42.5 nM
same,TGI,[44],284 nM
same,GI50,[45],480 nM
same,GI50,[46],130 nM
same,GI50,[47],370 nM
same,GI50,[48],280 nM
same,TGI,[48],1610 nM
same,GI50,[49],269 nM
same,GI50,[50],1360 nM
same,GI50,[51],341 nM
same,GI50,[52],116 nM
same,TGI,[52],1580 nM
same,GI50,[53],218 nM
same,TGI,[53],958 nM
same,GI50,[54],2330 nM
same,GI50,[55],305 nM
same,GI50,[56],635 nM
same,GI50,[57],182 nM
same,TGI,[57],857 nM
same,GI50,[58],156 nM
